Laboratory results taken from US4863951A, “Pharmacologically active amino-5,6,7,8-tetrahydronaphtho [2,3-B] furan compounds” (ADIR Et Cie, priority 1987, dated 1989).
Where a name gives a salt, the structure may show the parent alone. Read-outs that look alike come from different tables or passages of the source.

Tests used:
[1] = test system: apomorphine-induced rearing-up; test: Antagonism of apomorphine-induced rearing-up behavior in mice; type: in vivo; settings: Mus musculus, ip, apomorphine 0.75 mg.kg^-1 s.c.
Experimental: Studied in the test of antagonism of apomorphine-induced rearing-up following the subcutaneous administration of a dose of 0.75 mg.kg^-1 of this substance in mice, the compounds of general formula I act in a clear-cut manner at doses greater than or equal to 2.5 mg.kg^-1 (i.p.). The same results are observed when the compounds of general formula I are administered orally at a dose of 20 mg.kg^-1. The activity of the compounds was assessed according to the method described by Protais P, Costentin J and Schwartz J. C. in Psychopharmacology (1976), 50, p. 1-6.
(s=significant difference, p<0.05).

[2] = test system: apomorphine-induced stereotypy; test: Antagonism of apomorphine-induced stereotypy in rats; type: in vivo; settings: Rattus norvegicus, ip, 0.5 h, apomorphine 1.5 mg.kg^-1 i.p., 30 minutes
Experimental: The inhibitory activity of the compounds of the invention with respect to apomorphine- or amphetamine-induced stereotypy in rats was assessed using the scale of scoring of stereotyped movements described by Quinton R. M. and Halliwell G. in Nature (1963), 200, p. 178-179.
Apomorphine or amphetamine was administered to the animals intraperitoneally at a dose of 1.5 mg.kg^-1. The percentage inhibition (-) or potentiation (+) of the stereotypy score (% ISS) shown in Tables IV and V for apomorphine corresponds to a measurement time of 30 minutes. In contrast, the percentage inhibition of the stereotypy score shown in Table VI for amphetamine corresponds to a measurement time of 3 hours. […]

[3] = test system: apomorphine-induced hypothermia; test: Antagonism with respect to apomorphine-induced hypothermia in mice; type: in vivo; settings: Mus musculus, ip, apomorphine 1 mg.kg^-1 s.c., after 2 hours
Experimental: Testing for an antagonism with respect to apomorphine-induced hypothermia in mice was performed according to the method described by CHERMAT R. and PONCELET M. in J. Pharmac. (1983), 14, No. 1, p. 93-97. The dose of apomorphine administered subcutaneously was 1 mg.kg^-1. Tables VII and VIII show the percentage antagonism of the hypothermia observed after 2 hours.

[4] = test system: isolation-induced aggression; test: Antiaggressive effects: isolation-induced aggression in mice; type: in vivo; settings: isolated mice, i.p.
Excerpt: (§1) The antiaggressive effects of the compounds of the invention were investigated by two methods, one of them testing for an inhibition of aggressive behavior in peviously isolated mice (Yen C. Y., Stanger A. L., and Millman N, Arch. Int. Pharmacodyn. Therap. (1959), 123, p. 179-185), and the other in isolated and bulbectomized rats (Garattini S. and Sigg E. B. "Aggressive Behaviour" p. 47-55 Ed. Excerpta Medica Found., Amsterdam, 1969).
(§2) (Tables IX and X, s=significant, p<0.05).

[5] = test system: reserpine-induced hypothermia; test: Antagonism of reserpine-induced hypothermia; type: in vivo, Swiss CD male mice; settings: mice, reserpine 2.5 mg.kg^-1 i.p.
Experimental: The antidepressant effects of the compounds of the invention were investigated by assessing the antagonism of reserpine-induced hypothermia and the antagonism of the ponto-geniculo-occipital waves induced by the compound Ro4-1284 in cats.
The study is carried out on Swiss CD male mice (27-28 g). After distribution into groups of 10 animals each, reserpine is injected intraperitoneally at a dose of 2.5 mg.kg^-1. Three hours later, the compounds undergoing trial are administered intraperitoneally. The rectal temperature of the animals is measured one hour and two hours after the second treatment, and compared with the initial temperature To of these same animals, measured immediately before the administration of the compounds undergoing trial.

[6] = test system: aggression of isolated, bulbectomized rats; test: Antiaggressive effects: aggression of isolated, bulbectomized rats; type: in vivo; settings: i.p., 5 mg.kg^-1, hydrochloride
Excerpt: as §1, §2

[7] = mice, i.p. dose 20 mg.kg^-1, read-out: % inhibition of rearing-up
[8] = mice, i.p. dose 40 mg.kg^-1, read-out: % inhibition of rearing-up
[9] = rats, i.p. dose 10 mg.kg^-1, read-out: % ISS (inhibition (-) or potentiation (+) of the stereotypy score)
[10] = rats, i.p. dose 20 mg.kg^-1, read-out: % ISS (inhibition (-) or potentiation (+) of the stereotypy score)
[11] = mice, i.p. dose 10, read-out: % antagonism of hypothermia
[12] = mice, i.p. dose 20, read-out: % antagonism of hypothermia
[13] = read-out: % inhibition of rearing-up, mice, i.p. dose 20 mg.kg^-1
[14] = read-out: % inhibition of rearing-up, mice, i.p. dose 40 mg.kg^-1
[15] = read-out: % inhibition of rearing-up, mice, i.p. dose 10 mg.kg^-1
[16] = read-out: % ISS (inhibition (-) or potentiation (+) of the stereotypy score), rats, i.p. dose 10 mg.kg^-1
[17] = 2 h, read-out: % antagonism of hypothermia, mice, i.p. dose 10
[18] = 2 h, read-out: % antagonism of hypothermia, mice, i.p. dose 20
[19] = mice, i.p. dose 10 mg.kg^-1, read-out: % inhibition of rearing-up

SMILES: OCCCCCCNC1CCc2cc3c(cc2C1)OCC3 (racemic) [Example 32, dl-7-[N-(6-Hydroxyhexyl)amino]-2,3,5,6,7,8-hexahydronaphtho[2,3-b]furan hydrochloride]
- change in vivo at 20 mg/kg [1, 7]: -32%
- change in vivo at 40 mg/kg [1, 8]: -40%
- change in vivo at 10 mg/kg [2, 9]: -3%
- change in vivo at 20 mg/kg [2, 10]: -5%
- change in vivo at 10 mg/kg [3, 11]: -10%
- change in vivo at 20 mg/kg [3, 12]: -13%
- % of pairs of mice showing no sign of fighting ([4]; 5 mg.kg^-1): 10%
- % of pairs of mice showing no sign of fighting ([4]; 20 mg.kg^-1): 30%
- % inhibition of hypothermia ([5]; 10 mg.kg^-1 i.p.): -1%
- % inhibition of hypothermia ([5]; 20 mg.kg^-1 i.p.): -29%

SMILES: CC(CCCCC(=O)O)NC1CCc2cc3c(cc2C1)OCC3 (racemic) [Example 29, dl-6-{N-(2,3,5,6,7,8-Hexahydronaphtho[2,3-b]furan-7-yl)amino}-6-methylhexanoic acid hydrochloride]
- change in vivo at 10 mg/kg [2, 9]: 11%

SMILES: CNC1CCc2cc3c(cc2C1)OCC3 (stereo not drawn) [Example 39, l-7-(N-Methylamino)-2,3,5,6,7,8-hexahydronaphtho[2,3-b]furan hydrochloride]
- % of pairs of mice showing no sign of fighting ([4]; 2.5 mg.kg^-1): 70%
- % of pairs of mice showing no sign of fighting ([4]; 5 mg.kg^-1, hydrochloride): 90%
- % of rats rendered non-aggressive [6]: 58%
- % inhibition of hypothermia ([5]; 2.5 mg.kg^-1 i.p., hydrochloride): +37%
- % inhibition of hypothermia ([5]; 5 mg.kg^-1 i.p., hydrochloride): +14%
- % inhibition of hypothermia ([5]; 10 mg.kg^-1 i.p., hydrochloride): +6%
- % inhibition of hypothermia ([5]; 20 mg.kg^-1 i.p.): +15%

SMILES: NC1CCCc2cc3c(cc21)OCC3 (racemic) [Example 15, dl-8-Amino-2,3,5,6,7,8-hexahydronaphtho[2,3-b]furan hyrochloride]
- change in vivo at 20 mg/kg [1, 13]: -9%
- change in vivo at 40 mg/kg [1, 14]: 0%

SMILES: CCCNC1CCc2cc3c(cc2C1)OCC3 (racemic) [Example 34, dl-7-N-n-Propylamino)-2,3,5,6,7,8-hexahydronaphtho[2,3,-b]furan hydrochloride]
- change in vivo at 10 mg/kg [1, 15]: -23%
- change in vivo at 40 mg/kg [1, 14]: -100%
- change in vivo at 10 mg/kg [2, 16]: -68%
- change in vivo at 20 mg/kg ([2]; read-out: % ISS (inhibition (-) or potentiation (+) of the stereotypy score), rats, i.p. dose 20 mg.kg^-1): -70%
- change in vivo at 10 mg/kg [3, 17]: -7%
- change in vivo at 20 mg/kg [3, 18]: -16%

SMILES: NC1CCc2cc3c(cc2C1)CCO3 (racemic) [Example 19, dl-6-Amino-2,3,5,6,7,8-hexahydronaphtho[2,3-b]furan hydrochloride]
- change in vivo at 20 mg/kg [1, 13]: -57%
- change in vivo at 40 mg/kg [1, 14]: -90%

SMILES: NC1CCCc2cc3c(cc21)CCO3 (racemic) [Example 18, dl-5-Amino-2,3,5,6,7,8-hexahydronaphtho[2,3,-b]furan hydrochloride]
- change in vivo at 20 mg/kg [1, 13]: -12%
- change in vivo at 40 mg/kg [1, 14]: 6%

SMILES: CCCN(CCC)C1CCc2cc3c(cc2C1)OCC3 (racemic) [Example 5, dl-7-(N,N-Dipropylamino)-2,3,5,6,7,8-hexahydronaphtho[2,3-b]furan]
- change in vivo at 20 mg/kg [1, 13]: 27%
- change in vivo at 40 mg/kg [1, 14]: -54%
- change in vivo at 5 mg/kg ([2]; read-out: % ISS (inhibition (-) or potentiation (+) of the stereotypy score), rats, i.p. dose 5 mg.kg^-1): -3%
- change in vivo at 10 mg/kg [2, 16]: 0%
- change in vivo at 5 mg/kg ([3]; 2 h, read-out: % antagonism of hypothermia, mice, i.p. dose 5): -20%
- change in vivo at 10 mg/kg [3, 17]: -47%
- change in vivo at 20 mg/kg [3, 18]: -68%
- % of pairs of mice showing no sign of fighting ([4]; 20 mg.kg^-1): 50%
- % of pairs of mice showing no sign of fighting ([4]; 40 mg.kg^-1): 89%

SMILES: CC(CCCCCC(=O)O)NC1CCc2cc3c(cc2C1)OCC3 (racemic) [Example 31, dl-7-{N-(2,3,5,6,7,8-Hexahydronaphtho[2,3-b]furan-7-yl)amino}-7-methylheptanoic acid hydrochloride]
- change in vivo at 20 mg/kg [1, 7]: 5%
- change in vivo at 40 mg/kg [1, 8]: 22%
- change in vivo at 10 mg/kg [2, 9]: 5%
- change in vivo at 20 mg/kg [2, 10]: -3%

SMILES: O=C1CCCN1C1CCc2cc3c(cc2C1)OCC3 (racemic) [Example 37, dl-7-(2-Oxo-1-pyrrolidinyl)-2,3,5,6,7,8-hexahydronaphtho[2,3-b]furan]
- change in vivo at 10 mg/kg [2, 9]: -6%
- change in vivo at 20 mg/kg [2, 10]: -14%

SMILES: CC(CCCC(=O)O)NC1CCc2cc3c(cc2C1)OCC3 (racemic) [Example 27]
- change in vivo at 10 mg/kg [1, 19]: -46%
- change in vivo at 20 mg/kg [1, 7]: -63%
- change in vivo at 10 mg/kg [2, 9]: -5%
- change in vivo at 20 mg/kg [2, 10]: -8%
- change in vivo at 10 mg/kg [3, 11]: -5%
- change in vivo at 20 mg/kg [3, 12]: -32%
- % inhibition of hypothermia ([5]; 10 mg.kg^-1 i.p.): -13%
- % inhibition of hypothermia ([5]; 20 mg.kg^-1 i.p.): -21%

SMILES: O=C(O)CCCCCNC1CCc2cc3c(cc2C1)OCC3 (racemic) [Example 25, dl-6-{N-(2,3,6,7,8-Hexahydronaphtho[2,3-b]furan-7-yl)amino}hexanoic acid hydrochloride]
- change in vivo at 10 mg/kg [2, 9]: 9%
- % of pairs of mice showing no sign of fighting ([4]; 10 mg.kg^-1): 20%

SMILES: NC1CCc2cc3ccoc3cc2C1 (racemic) [Example 21, dl-7-Amino-5,6,7,8-tetrahydronaphtho[2,3-b]furan hydrochloride]
- change in vivo at 10 mg/kg [1, 15]: -56%
- change in vivo at 20 mg/kg [1, 13]: -84%

SMILES: FC(F)(F)CNC1CCc2cc3c(cc2C1)OCC3 (racemic) [Example 35, dl-7-[N-(2,2,2-Trifluoroethyl)amino]-2,3,5,6,7,8-hexahdronaphtho[2,3-b]furan hydrochloride]
- change in vivo at 10 mg/kg [1, 19]: -30%
- change in vivo at 20 mg/kg [1, 7]: -38%
- change in vivo at 10 mg/kg [3, 11]: -16%
- change in vivo at 20 mg/kg [3, 12]: -31%
- % inhibition of hypothermia ([5]; 10 mg.kg^-1 i.p.): -20%
- % inhibition of hypothermia ([5]; 20 mg.kg^-1 i.p.): -4%

SMILES: CN(CC1CCCCC1)C1CCc2cc3c(cc2C1)OCC3 (racemic) [Example 10, dl-7-(N-Cyclohexylmethyl-N-methylamino)-2,3,5,6,7,8-hexahydronaphtho[2,3-b]furan hydrochloride]
- change in vivo at 10 mg/kg [1, 15]: 11%
- change in vivo at 20 mg/kg [1, 13]: 11%
- change in vivo at 40 mg/kg [1, 14]: -96%
- % of pairs of mice showing no sign of fighting ([4]; 5 mg.kg^-1): 0%
- % of pairs of mice showing no sign of fighting ([4]; 10 mg.kg^-1): 11%
- % of pairs of mice showing no sign of fighting ([4]; 20 mg.kg^-1): 60%
